In one assay the test system is Culex pipiens pallens. Kind of assay: Water treatment test against Culex pipiens pallens last instar larvae. Type of assay: in vivo. The note with it: 24 h; active ingredient 3.5 ppm in water; 20 Culex pipiens pallens last instar larvae; after one day; read-out: mortality rate. How it is done:
Each of the formulations of the present compounds (1), (3), (4), (6), (8), (9), (10), (14) and (15) obtained in Formulation Example 20 was diluted so that the concentration of the present compound was 500 ppm to prepare a test solution.
To 100 mL of ion-exchange water was added 0.7 mL of the above test solution (concentration of an active ingredient: 3.5 ppm). In the solution, 20 Culex pipiens pallens last instar larvae were released. After one day, life and death of Culex pipiens last instar larvae were examined and the mortality rate was determined.

Another assay has as its system Musca domestica. Kind of assay: Filter paper/sucrose bait test against female Musca domestica. Type of assay: in vivo. The note with it: 500 ppm test solution, 0.7 mL on filter paper; 10 female Musca domestica; after 24 hours; read-out: mortality rate. How it is done: Each of the formulations of the present compounds (1), (2), (3), (4), (5), (6), (8), (9), (10), (12), (14) and (15) obtained in Formulation Example 20 was diluted so that the concentration of the present compound was 500 ppm to prepare a test solution.
On the bottom of a polyethylene cup having a diameter of 5.5 cm, a filter paper having the same size was laid and 0.7 mL of the test solution was dropped on the filter paper, and then 30 mg of a sucrose as a bait was uniformly placed. In the polyethylene cup, 10 female Musca domesticas were released and the cup was lidded. After 24 hours, life and death of Musca domesticas were examined and the mortality rate was determined.

The values that follow come from US8263628B2, “Fluorine-containing organosulfur compound and pesticidal composition thereof” (Sumitomo Chemical Company, Limited., priority 2007, dated 2012).

As usually defined, the mortality is the percentage killed. Turning to `FC(F)(F)CCSCc1ccc(C(F)(F)F)nc1` [present compound (1), 2-trifluoromethyl-5-(3,3,3-trifluoropropylsulfanylmethyl)pyridine], the mortality at 3.5 ppm in the assay with Culex pipiens pallens was at least 95%. Also, the mortality at 500 ppm in the assay with Musca domestica was at least 90%. As for `O=S(=O)(CCC(F)(F)F)Cc1ccc(C(F)(F)F)nc1` [present compound (2), 2-trifluoromethyl-5-(3,3,3-trifluoropropanesulfonylmethyl)pyridine], in the assay with Musca domestica, the mortality at 500 ppm is at least 90%. Take `CC(SCCC(F)(F)F)c1ccc(C(F)(F)F)nc1` (stereo not drawn) [present compound (3), 2-trifluoromethyl-5-[1-(3,3,3-trifluoropropylsulfanyl)ethyl]pyridine]: in the assay on Culex pipiens pallens, the mortality at 3.5 ppm is at least 95%. For the same compound, the mortality at 500 ppm in the assay with Musca domestica was at least 90%.

As to `CC(c1ccc(C(F)(F)F)nc1)S(=O)(=O)CCC(F)(F)F` (stereo not drawn) [present compound (4), 2-trifluoromethyl-5-[1-(3,3,3-trifluoropropanesulfonyl)ethyl]pyridine], in the assay with Culex pipiens pallens, the mortality at 3.5 ppm is at least 95%. The mortality at 500 ppm with Musca domestica is at least 90%. Take `FC(F)(F)CCSCc1ccc(Cl)cn1` [present compound (5), 5-chloro-2-(3,3,3-trifluoropropylsulfanylmethyl)pyridine]: the mortality at 500 ppm in the assay on Musca domestica was at least 90%.

On to `CC(SCCC(F)(F)F)c1ccc(Cl)cn1` (stereo not drawn) [present compound (6), 5-chloro-2-[1-(3,3,3-trifluoropropylsulfanyl)ethyl]pyridine], for which the mortality at 3.5 ppm in the assay on Culex pipiens pallens is at least 95%. Further, in the assay on Musca domestica, the mortality at 500 ppm is at least 90%. In the case of `CC(SCCC(F)(F)F)c1ccc(C(F)(F)F)cn1` (stereo not drawn) [present compound (8), 5-trifluoromethyl-2-[1-(3,3,3-trifluoropropylsulfanyl)ethyl]pyridine], the mortality at 3.5 ppm with Culex pipiens pallens was at least 95%. Further, the mortality at 500 ppm in the assay on Musca domestica is at least 90%. In the same order, the values of `CC(c1ccc(C(F)(F)F)cn1)S(=O)(=O)CCC(F)(F)F` (stereo not drawn) [present compound (9), 5-trifluoromethyl-2-[1-(3,3,3-trifluoropropanesulfonyl)ethyl]pyridine] are at least 95% and at least 90%. On the same counts, the results for `FC(F)(F)CCSCc1cnc(C(F)(F)F)nc1` [present compound (10), 2-trifluoromethyl-5-(3,3,3-trifluoropropylsulfanylmethyl)pyrimidine] are at least 95% and at least 90%. With `COc1ncc(CSCCC(F)(F)F)cn1` [present compound (12), 2-methoxy-5-(3,3,3-trifluoropropylsulfanylmethyl)pyrimidine], the mortality at 500 ppm in the assay with Musca domestica is at least 90%.

Regarding `COC(=O)C(Cl)(c1ccc(C(F)(F)F)cn1)S(=O)(=O)CCC(F)(F)F` (stereo not drawn) [present compound (14), methyl 2-chloro-2-(5-trifluoromethylpyridin-2-yl)-2-(3,3,3-trifluoropropylsulfonyl)acetate], the mortality at 3.5 ppm in the assay on Culex pipiens pallens is at least 95%. In addition, in the assay with Musca domestica, the mortality at 500 ppm was at least 90%. In the same order, the values of `O=S(=O)(CCC(F)(F)F)C(Cl)c1ccc(C(F)(F)F)cn1` (stereo not drawn) [present compound (15), 2-[chloro-(3,3,3-trifluoropropanesulfonyl)methyl]-5-trifluoromethylpyridine] are at least 95% and at least 90%.
